Publication PMC9785606, “Design and Synthesis of Novel Phenylahistin Derivatives Based on Co-Crystal Structures as Potent Microtubule Inhibitors for Anti-Cancer Therapy” (Marine Drugs, 2022)

Tests used:
caspase-3 = test: Western blotting of caspase-3 expression; type: cell-based
Procedure: Western blot was performed as previously described with antibody caspase-3 (1:1000) (WB0177/WB0176) or GAPDH (1:3000) (WB0197/WB0196, Shanghai Wei-Ao Biotechnology Co., Shanghai, China). Densities of the Western blotting bands were quantified using ImageJ 19.0. (NIH, Bethesda, MD, USA).

[1] = test system: microtubules in NCI-H460 cells; test: Immunofluorescence assay of microtubules (β-tubulin/DAPI staining); type: cell-based, human; conditions: 2 nM, 24 h
Procedure: To further explore the effect of phenylahistin derivatives 1 and 15p on microtubules in cancer cells, an immunofluorescence assay was performed. […] The inhibitory activities were consistent with the previously shown anti-proliferative activities.
NCI-H460 cells were seeded in 24-well plate (with coverslips plated) at the density of 5 × 10^4 cells. […] Then, cells were fixed with 4% cold paraformaldehyde at 4 °C for 15 min and then permeabilized in 0.05% Triton X-100 for 10 min. The cells were blocked in 1% BSA for 30 min. Microtubules were detected by incubation with a monoclonal anti-β-tubulin (β-tubulin antibody was obtained from Servicebio, Wuhan, China.) at 4 °C for 12 h. Subsequently, the cells were washed with PBS and incubated with a FITC-conjugated anti-mouse IgG antibody. Nuclei were stained with DAPI (G1012, Servicebio, Wuhan, China). The coverslips were visualized under fluorescence microscope (Nikon Eclipse C1, Nikon, Japan) and an image-forming system (Nikon DS-U3, Nikon, Tokyo, Japan).

## C=CCn1cnc(/C=c2\[nH]c(=O)/c(=C/c3cccc(C(=O)c4ccc(F)cc4)c3)[nH]c2=O)c1C(C)C [15p]
caspase-3
  Expression of caspase-3 vs control group and plinabulin group: significantly higher
caspase-3; 10 nM
  Upregulation of caspase-3: strongest upregulation of caspase-3
[1]
  Effect on microtubule networks: microtubule networks were damaged
